The results in this text go back to a melting point compilation (Tetko et al.; mined from patent text by program, amines drawn as free bases though some values may be those of a salt).

On to `C[Si](C)(C)CCCSCCCNC(=O)n1cc(F)c(=O)[nH]c1=O`, for which the melting point fell in the range of 105 to 106 °C.
The same measure for `O=C(CC(F)(F)F)NC[C@H]1CN(c2ccc3c(c2)CCCc2cn[nH]c2-3)C(=O)O1`: 243 to 245 °C.
Consider `CC(C)c1nn2ccccc2c1C(O)C(C)(C)C` (centres undefined), for which the melting point is 95 °C.
The compound `CC(C)(C)n1cc(CN(Cc2cn(CCO)nn2)Cc2cn(C(C)(C)C)nn2)nn1` had a melting point of 82 to 83 °C.
To `CC(C)=CCn1c(=O)sc2c(=O)[nH]c(N)nc21` belongs 290 to 292 °C; to `CC(C)(C)OC(=O)NOCC(O)c1ccccc1` (centres undefined), 97 to 99 °C.
The same measure for `Cc1ccc2[nH]c(=O)cc(CCN3CCN(c4cccc5ccccc45)CC3)c2c1`: 241 to 242 °C; for `Cc1ccccc1S(=O)(=O)c1cc2c(cc1C)OC(C(=O)O)O2` (centres undefined): 178 to 180 °C.
For `COC(=O)c1cc(OC)cc(OC)c1N`, the melting point fell in the range of 93 to 95 °C.
In the case of `CN1CCC(c2c[nH]c3ccc(NC(=O)c4ccc(C#N)cc4)nc23)CC1`, the melting point lay in the range of 129 to 134 °C.
The same measure for `CCN(CC)c1ccc2ccc(=O)oc2c1`: 87.5 to 88 °C; for `CC1(C)CCC(C)(C)c2cc(CC(=O)Oc3ccc(C(=O)O)cc3)ccc21`: 142 to 143 °C.
In turn, `CC(C)(C)CN(NC(=O)c1ccccc1)C(=O)c1ccccc1` displayed a melting point of 237 to 239 °C.
For `COc1ccc2c(ccc3c4cc5c(cc4nnc23)OCO5)c1`, the melting point was in the range of 258 to 260 °C.
Consider `COC(=O)c1ccc(C(=O)NS(=O)(=O)c2ccc(CCNC(=O)Cc3ccc(OC)c(OC)c3)cc2)cn1`, for which the melting point lay in the range of 164 to 169 °C.
The same measure for `O=C(c1ccc(O)cc1)c1c(-c2ccc(O)cc2)sc2ccccc12`: 90 °C; for `CC(C)(C)OC(=O)N1C2CCC1CN(Cc1ccccc1)C2`: 58 to 60 °C; for `CCOc1ccc(CCCOc2c(CC(=O)O)cccc2OC)c(Oc2ccc(Cl)cc2Cl)n1`: 89 to 91 °C.
To `Cc1cc(C)nc(OC(C(=O)O)c2ccccc2)n1` (centres undefined) belongs 148 °C.
For `CCCCN(CCCC)C(=O)CC1C(=O)N(c2ccc(Cl)cc2)C(=O)N1c1ccc(Cl)cc1` (centres undefined), the melting point came to 124 °C.
Compound `CC1(C)C(C=CC(=O)O)C1C(=O)OCc1ccccc1` (centres undefined) gave a melting point of 69 °C.
With `CN(C)CC(C)(C)Cn1ccc(-c2ccc(F)cc2)c1-c1ccncc1`, the melting point is 101 to 103 °C.
Compound `Nc1cccc(-c2cccc(-c3ccnc4c(C(=O)c5cccs5)cnn34)c2)c1` came in with a melting point of 117 to 121 °C.
To `Clc1ccc(-n2nc(C3CC3)cc2C2CC2)nn1` belongs 102 to 105 °C; to `CCOC(=O)C1=C(O)c2cc3ccccc3n2CC1`, 101 to 103 °C; to `NC1CC(O)c2ccccc21` (centres undefined), 108 to 110 °C.
Consider `Cc1nnc2ncc(-c3ccccc3)cn12`, for which the melting point was in the range of 199 to 200 °C.
The same measure for `O=c1nc(-c2ccccc2)c2ccsc2[nH]1`: 247 to 249 °C; for `CC(=O)Nc1nc(NC(C)=O)nc(-c2ccc(S(=O)(=O)c3ccccc3)cc2)n1`: more than 260 °C; for `CCCCNc1nc(-c2ccc(F)cc2)c(-c2ccc(S(C)(=O)=O)cc2)s1`: 134 to 135 °C.
Compound `CC(C)c1nc(-c2ccccc2)c(F)c(-c2ccc(F)cc2)c1CO` returned a melting point of 164 to 165 °C.
In turn, `O=C([C@H]1CCc2cc(Cl)c(Cl)cc21)N1CCSC[C@H]1CN1CCCC1` showed a melting point of 123 to 124 °C.
The same measure for `CCCCCCCCCCCC(=O)NCCCCCC(=O)O`: 85 to 86 °C.
`N#Cc1ccc(OCc2ccc3c(c2)OCO3)cc1OC(C(=O)O)c1ccccc1C(F)(F)F` (racemic) yielded a melting point of 137 to 138 °C.
To `CC(c1ccccc1)n1ncc(-c2nc(-c3ccco3)n[nH]2)c1N` (centres undefined) belongs 175 to 176 °C.
Regarding `COC(=O)[C@H](Cc1ccc(NC(=O)c2c(Cl)cccc2Cl)cc1)NC(=O)OC(C)(C)C`, the melting point was in the range of 148 to 151 °C.
The same measure for `C#CC1(OC(C)=O)C(COC(=O)c2ccc(Cl)cc2)OC(n2ccc(=O)[nH]c2=O)C1OC(C)=O` (centres undefined): 218 to 219 °C; for `CCOC(=O)C1=C(C)NC(C)=C(C(=O)OCC)C1c1nc(-c2ccc(OC)cc2)c(-c2ccc(OC)cc2)s1`: 177 to 178 °C.
To `CO[C@H]1CC[C@H](C(=O)N2CCC(c3[nH]nc4c3C(=O)c3c(NC(=O)NN5CCOCC5)cccc3-4)CC2)CC1` belongs 178 to 180 °C; to `CC(=O)N(O)Cc1ccc2c(c1)Cc1ccccc1-2`, 182 to 183 °C.
The same measure for `Brc1ccc(Br)c2nsnc12`: 181 to 183 °C.
`CCCN1C(=O)CC(C)(C)c2cc(C)c(-c3cc(C=C4SC(=O)NC4=O)ccc3N(C)C)cc21` returned a melting point of 258 to 260 °C.
To `CCCCOc1ccccc1Nc1ncc(C(=O)OCC)c(=O)[nH]1` belongs 209 to 211 °C.
To `CCc1[nH]c2ccc(OC)cc2c1C=O` belongs 211 to 212 °C; to `CC(C)(NC(=O)c1nnc2ccc(NCCCN3CCC(OC(c4ccccc4)c4ccccc4)CC3)nn12)C(=O)O`, 191 to 193 °C; to `Cc1cc(C)cc(CCCn2c(=O)[nH]c3cc(Cl)cc(Cl)c3c2=O)c1`, 205 to 208 °C.
On to `COc1cc2c(cc1OC)C(CSc1nnnn1C)NCC2` (centres undefined), for which the melting point fell in the range of 96 to 99 °C.
The compound `CCOC(=O)c1c(CCl)nc2cc(OC)c(OC)cc2c1-c1ccc(Cl)cc1` displayed a melting point of 153 to 154 °C.
`c1cc2cc(-n3cnnc3)ncc2[nH]1` showed a melting point of 254 to 257 °C.
To `O=C(O)/C=C/c1ccc(C(=O)NCC2CCCO2)cc1` (centres undefined) belongs 215 °C; to `CCOC(=O)NNc1cc(C)c(-c2ccc(Br)cc2)nn1`, 178 to 179 °C.
To `Cc1ccc(C(=O)NC(=O)Nc2cc3c(cc2F)/C(=C/c2[nH]c(C)c(CCC(=O)O)c2C)C(=O)N3)cc1` belongs 265 to 270 °C; to `O=Cc1ccc(C#Cc2ccc(Cl)cc2)cc1`, 123 °C; to `O=C(c1cccs1)c1cnn2c(-c3csc([N+](=O)[O-])c3)ccnc12`, 225 to 226 °C.
For `CCCc1cn(C)c2c(=O)[nH]c(-c3cc(S(=O)(=O)N4CCN(CCOC(C)=O)CC4)ccc3OCC)nc12`, the melting point turned out to be 192 °C.
With `Clc1cccc(-c2nc3ccccc3n2-c2ccccc2)c1`, the melting point lay in the range of 107 to 109 °C.
To `Cn1nc2c(-c3ccc(Cl)cc3Cl)cccc2c1C(=O)c1ncn[nH]1` belongs 284 to 285 °C.
As to `C=CCOC(=O)NC(=O)C(C)(c1ccccc1)c1ccccc1`, the melting point came to 89 °C.
To `Cc1sc(-c2ccc(-c3ccccc3)cc2)nc1CCOc1ccc(OC(C)(C)C(=O)O)cc1` belongs 174 °C; to `ClCOc1ccc(Cl)cc1Br`, 56 to 57.5 °C; to `CC(C)c1ocnc1C(=O)O`, 136 to 137 °C.
In turn, `CN1Cc2c(-c3noc(CCl)n3)ncn2-c2ccc(F)cc2C1=O` had a melting point of 245 to 247 °C.
In turn, `O=C(O)COc1ccc2c(c1)Nc1ccccc1S2` yielded a melting point of 180 to 181 °C.
The compound `CC1CCN(c2c(C#N)c3c(c4c2Cc2ccccc2-4)-c2ccccc2C3)CC1` gave a melting point of 166 to 168 °C.
As for `CCOP(=O)(OCC)C(CNC=NNC(=O)c1nc2ccccc2[nH]1)P(=O)(OCC)OCC`, the melting point came out at 143 °C.
Compound `CO[C@@H]1[C@H](O)[C@@H](CO)O[C@H]1n1cnc2c(N[C@H](C)Cc3sccc3Cl)ncnc21` displayed a melting point of 75 to 76 °C.
The same measure for `C=C(CC(=O)Nc1cc(Cl)cc(Cl)c1)C(=O)OCCCCCC`: 60 °C; for `O=C(O)C(=O)c1ccc(OCC(=O)c2cccc3ccccc23)cc1`: 141 to 143 °C; for `CCCCOc1c(CNC(=O)OC(C)(C)C)n(CC(C)C)c(=O)c2ccc(-c3nc(C)c(C(=O)O)s3)cc12`: 107 to 109 °C.
To `CNc1nn(C(=O)Cl)c(=O)n1C` belongs 185 °C.
The compound `CCN1CCC2(c3cccc(O)c3)Cc3[nH]c(C(=O)N4CCCC4)c(C)c3CC2C1` (centres undefined) showed a melting point of 224 to 226 °C.
`CCCC(CCC)n1nnc2c(Nc3c(Cl)cc(OC)cc3OC)nc(C)cc21` registered a melting point of 157 to 158 °C.
In turn, `CC(C)CNc1nc(-c2ccccc2)cn2ccnc12` returned a melting point of 81 °C.
The same measure for `O=C(Cn1c2c(c3c4c(ccc31)OCC=C4)CCN(Cc1ccccc1)CC2)Nc1ccccc1`: 134 to 136 °C; for `Cc1ccc(O[C@@H](Cc2ccc(O)cc2)C(=O)N2C(=O)OC[C@@H]2Cc2ccccc2)cc1`: 135 to 136 °C.
Turning to `CCCCCCCCSCN1CN(CSCCCCCCCC)c2cccc3cccc1c23`, the melting point lay within 52 to 56 °C.
For `O=C1CC(c2cccc(Cl)c2)c2cc(C(=O)c3ccc(Cl)cc3)ccc2N1` (centres undefined), the melting point was 195 °C.
Take `Cc1ccc(/C=C/C2=CCN(Cc3ccc(Cl)cc3)CC2)cc1`: the melting point was in the range of 122 to 124 °C.
To `COC(=O)c1ccc(N2CCN(C)CC2)cc1` belongs 117 to 119 °C.
As for `CCCCCCCCn1c(=O)c2c(Cl)cc(Cl)cc2n(Cc2ccccc2)c1=O`, the melting point is 82 to 85 °C.
The same measure for `O=C(Nc1ccc(C2=CCN(C(=O)Nc3ccc(OCC(O)CO)cc3Cl)CC2)cc1)Nc1ccccc1F` (centres undefined): 161 to 165 °C; for `Cc1oc(-c2cccs2)nc1CCOc1ccc(N)cn1`: 120 to 122 °C; for `Cc1ccc(S(=O)(=O)N2CCC(c3ccccc3)CC2)cc1`: 153 to 154 °C.
Take `Cc1c2c(c(CCC=O)c(C(C)C)c1OCc1ccccc1)OC(C)(C)C2`: the melting point is 88 to 89 °C.
Regarding `CCCCC(=O)N(Cc1ccc(Br)cc1)[C@H](C(=O)O)C(C)C`, the melting point was determined as 123 °C.
The same measure for `Cc1ccc(S(=O)(=O)n2c(CCC(=O)O)cc3cc(Cl)ccc32)cc1`: 165 to 168 °C; for `CSc1nnc(Cc2cccnc2)c(=O)[nH]1`: 215 to 216 °C.
Take `CCCCc1nnc2c(Cl)nc3ccccc3n12`: the melting point fell in the range of 144 to 146 °C.
The same measure for `O=C(Cc1cccc2ccccc12)NCc1cccc2c1C(=O)N(C1CCC(=O)NC1=O)C2=O` (centres undefined): 187 to 189 °C.
